In patent US20230053540A1, “TREATMENT OF LIVER INJURY” (Massachusetts Institute of Technology, priority 2019, published 2023):

System: hepatocytes
Test: Seq-Well scRNA-Seq of hepatocytes after APAP overdose (signature scores, DEG vs untreated)
Format: in vivo, mouse
Conditions: APAP vs UT

## CC(=O)Nc1ccc(O)cc1 [APAP, acetaminophen]
Composite DEG
  Tm7sf2 logFC: −0.3164
  Tmbim4 logFC: 0.3227
  Tmbim6 logFC: 0.3387
  Tmed5 logFC: 0.4016
  Tmem14c logFC: −0.3685
  Tmem37 logFC: −0.2822
  Tmem56 logFC: 1
  Tmem147 logFC: −0.2838
  Tmem160 logFC: −0.339
  Tmem205 logFC: −0.7747
  Tmem243 logFC: −0.3791
  Tmem258 logFC: −0.2769
  Tmprss6 logFC: −0.2802
  Tmsb4x logFC: 0.7806
  Tnks2 logFC: 0.3176
  Tns1 logFC: 0.4349
  Tob1 logFC: −0.3387
  Tomm70a logFC: 0.2688
  Tpr logFC: 0.4409
  Trf logFC: −0.2619
  Trib1 logFC: 0.3317
  Trp53inp1 logFC: 1.008
  Tsc22d1 logFC: −0.2997
  Tspan31 logFC: −0.2959
  Tspo logFC: −0.3157
  Ttc36 logFC: −0.6606
  Tubb6 logFC: 0.5767
  Txn1 logFC: −0.3091
  Txndc5 logFC: 0.2901
  Txnrd1 logFC: 1.444
  Tyrobp logFC: 0.4666
  Ubb logFC: −0.275
  Ubc logFC: −0.6618
  Ubl5 logFC: −0.3033
  Ubr4 logFC: 0.3301
  Ugp2 logFC: 0.2973
  Ugt2b1 logFC: −0.7768
  Ugt2b5 logFC: −0.6034
  Ugt2b36 logFC: −0.5834
  Uhrf1bp1l logFC: 0.4198
  Uqcc2 logFC: −0.3269
  Uqcrb logFC: −0.4084
  Uqcrq logFC: −0.8867
  Urah logFC: −0.7641
  Uroc1 logFC: 0.4162
  Vcam1 logFC: 0.4574
  Vnn3 logFC: 0.2765
  Vtn logFC: 0.3338
  Wbp1l logFC: 0.5535
  Wdr26 logFC: 0.4325
  Wdr43 logFC: 0.3438
  Xiap logFC: 0.2602
  Yap1 logFC: 0.3281
  Zbtb20 logFC: 0.4715
  Zfp91 logFC: 0.3707
  Zyx logFC: 0.2983
  mmu-mir-6240 logFC: 1.101
  mt-Co3 logFC: −1.167
A24logFC
  0610007P14Rik logFC: −0.257
  1110058L19Rik logFC: −0.2581
  4931406C07Rik logFC: −0.2544
  4932438A13Rik logFC: 0.2879
  2810428115Rik logFC: −0.2631
  Abcb11 logFC: −0.2618
  Abcc2 logFC: 0.2897
  Abce1 logFC: 0.28
  Abcf1 logFC: 0.3032
  Abcg2 logFC: −0.2809
  Acaa1a logFC: −0.3018
  Acat3 logFC: −0.3115
  Acot13 logFC: −0.2886
  Acsm5 logFC: −0.2614
  Actr3 logFC: 0.276
  Aes logFC: −0.2642
  Anxa5 logFC: 0.3654
  Apof logFC: −0.2522
  Arhgdia logFC: 0.2563
  Ash11 logFC: 0.2657
  Atf4 logFC: 0.3411
  Bc1af1 logFC: 0.2685
  Bdhl logFC: −0.2936
  C6 logFC: −0.267
  C1d logFC: −0.2553
  Cap1 logFC: 0.3251
  Ccdc50 logFC: 0.2858
  Ccnl1 logFC: 0.2566
  Cdh1 logFC: 0.2697
  Cep85 logFC: 0.2839
  Chmp4b logFC: 0.3002
  Chuk logFC: 0.3724
  Clic4 logFC: 0.2998
  Coasy logFC: −0.2534
  Commd3 logFC: −0.2656
  Csrp3 logFC: −0.294
  Ctnnd1 logFC: 0.2518
  Ctsc logFC: 0.361
  Cu11 logFC: 0.2592
  Cu13 logFC: 0.2788
  Cybb logFC: 0.3778
  Dcaf11 logFC: −0.2817
  Ddost logFC: 0.2504
  Ddx3y logFC: 0.3395
  Deb1 logFC: −0.267
  Dera logFC: −0.2674
  Diap1 logFC: 0.3259
  Dnaja2 logFC: 0.3723
  Dnajc5 logFC: 0.3265
  Dsp logFC: 0.2655
  Eea1 logFC: 0.2612
  Eif4a1 logFC: 0.2519
  Eif4ebp1 logFC: 0.2617
  Eifia logFC: 0.3147
  Eifib logFC: 0.2503
  Eific logFC: 0.302
  Elovl5 logFC: 0.3352
  Fam195a logFC: −0.2649
  Fasn logFC: 0.2914
  Fbxo21 logFC: −0.2631
  Ftsj3 logFC: 0.2552
  Gadd45a logFC: 0.2829
  Gars logFC: 0.2576
  Gcat logFC: −0.2587
  Gcgr logFC: −0.2576
  Gda logFC: 0.6275
  Gldc logFC: 0.2802
  Glul logFC: 0.3795
  Gm5424 logFC: 0.2698
  Gm20594 logFC: −0.36
  Gnai2 logFC: 1
  Gnas logFC: 0.2589
  Gsr logFC: 0.4128
  Gtf2a2 logFC: 0.2792
  H2-D1 logFC: 0.2865
  Hectd1 logFC: 0.308
  Herc1 logFC: 0.2562
  Herc4 logFC: 0.2675
  Hipk1 logFC: 0.2916
  Hnrnpu logFC: 0.3394
  Hpn logFC: −0.2686
  Hsbp1 logFC: −0.2867
  Iah1 logFC: −0.293
  Impad1 logFC: 0.3227
  Ivns1abp logFC: 0.3566
  Kdm5a logFC: 0.3514
  Ldlr logFC: 0.282
  Lipc logFC: −0.2548
  Magi3 logFC: 0.27
  Map3k2 logFC: 0.2518
  Mapkapk2 logFC: 0.3138
  Megf9 logFC: 0.2769
  Mgea5 logFC: 0.3263
  Mrpl11 logFC: −0.2685
  Mrpl15 logFC: −0.2912
  Mrpl20 logFC: −0.3093
  Mrpl28 logFC: −0.2699
  Mrpl34 logFC: −0.2838
  Mrpl41 logFC: −0.2674
  Mrpl42 logFC: −0.2845
  Mrps12 logFC: −0.2504
  Mvd logFC: −0.2704
  Myeov2 logFC: −0.3052
  Myo1b logFC: 0.2624
  Naa50 logFC: 0.2657
  Ndufa5 logFC: −0.252
  Nek7 logFC: 0.2911
  Net1 logFC: 0.3479
  Nploc4 logFC: 0.2918
  Nqo2 logFC: −0.2678
  Nucks1 logFC: 0.3558
  Nudt4 logFC: 0.2542
  Pa2g4 logFC: 0.2893
  Papss2 logFC: −0.2545
  Pcm1 logFC: 0.2654
  Pde3b logFC: −0.259
  Pdzd8 logFC: 0.2863
  Pet100 logFC: −0.28
  Pgls logFC: −0.2747
  Pi4k2a logFC: 0.3536
  Pkp4 logFC: 0.323
  Plbd2 logFC: 0.2649
  Plcxd2 logFC: −0.2752
  Pmpcb logFC: −0.2636
  Ppip5k2 logFC: 0.3209
  Ppm1g logFC: 0.2522
  Proc logFC: −0.2707
  Prpf19 logFC: 0.2588
  Psap logFC: 0.361
  Psma1 logFC: −0.2567
  Psma6 logFC: −0.3035
  Ptpmt1 logFC: −0.256
  Ptpn11 logFC: 0.2778
  Pvrl2 logFC: −0.2613
  Rab6a logFC: 0.3234
  Rabac1 logFC: −0.266
  Rangap1 logFC: 0.2962
  Rap1b logFC: 0.3408
  Rassf3 logFC: 0.2912
  Rbm39 logFC: 0.2657
  Riok3 logFC: 0.2916
  Rmnd5a logFC: 0.3189
  Rnf169 logFC: 0.334
  Rock1 logFC: 0.2608
